Data taken from patent US20130217092A1, “Enhancing Reactivation of Thermostable Reversibly Inactivated Enzymes” (Qiagen GmbH, priority 2006, published 2013).

Key:
Format in all cases: biochemical
[1] = molecular target: chemically modified enzyme (Thermus aquaticus, UniProt P19821); test: Additionally tested compounds, enhancement of enzyme activity of a chemically modified enzyme; details: conditions not stated
[2] = molecular target: T1, HotStarTaq DNA Polymerase (Thermus aquaticus, UniProt P19821); test: Fast PCR with ammonium chloride, agarose gel, Example 4; details: 10, 20 and 30 mM ammonium chloride vs 0 mM; PCR assays A, B, C; FIG. 3
T1 construct: purchased QIAGEN
T1 sequence (P19821 whole entry): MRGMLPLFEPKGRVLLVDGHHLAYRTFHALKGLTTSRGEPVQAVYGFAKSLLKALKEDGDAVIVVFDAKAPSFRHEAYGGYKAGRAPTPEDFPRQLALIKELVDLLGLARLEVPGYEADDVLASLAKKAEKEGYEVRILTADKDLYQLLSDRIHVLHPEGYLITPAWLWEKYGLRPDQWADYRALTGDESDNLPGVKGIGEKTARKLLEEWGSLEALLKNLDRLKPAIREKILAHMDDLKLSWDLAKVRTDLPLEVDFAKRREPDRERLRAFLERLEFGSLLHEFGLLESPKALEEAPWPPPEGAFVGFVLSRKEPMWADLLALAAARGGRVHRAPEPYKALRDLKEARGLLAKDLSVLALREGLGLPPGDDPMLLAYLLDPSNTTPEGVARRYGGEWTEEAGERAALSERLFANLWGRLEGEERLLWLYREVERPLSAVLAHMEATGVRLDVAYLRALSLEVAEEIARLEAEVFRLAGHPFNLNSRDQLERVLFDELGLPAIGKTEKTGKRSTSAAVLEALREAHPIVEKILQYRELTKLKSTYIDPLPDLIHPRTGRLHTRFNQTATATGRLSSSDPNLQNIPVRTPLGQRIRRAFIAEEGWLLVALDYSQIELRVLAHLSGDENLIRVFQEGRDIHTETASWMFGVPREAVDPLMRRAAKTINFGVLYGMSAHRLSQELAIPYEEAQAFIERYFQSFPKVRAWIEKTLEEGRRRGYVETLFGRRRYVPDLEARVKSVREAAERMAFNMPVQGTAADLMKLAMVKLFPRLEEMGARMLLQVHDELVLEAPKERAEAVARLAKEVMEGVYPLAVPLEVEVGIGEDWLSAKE
Method: Each PCR reaction contained 1.5 units HotStarTaq DNA Polymerase, 10 ng template human or mouse genomic DNA, 200 μM of each dNTP, 0.5 μM of each primer for each different PCR assay (Assay A, primer A1: 5′-GCTTGAGCAACCTGGCTAAGATAGAGG-3′ (SEQ ID NO:7), primer A2: 5′-GAGTTAGCAGGAGGCTGGATGCAGATG-3′ (SEQ ID NO:8); Assay B, primer B1: 5′-CCACAATGGACATCACACAAGTGAG-3′ (SEQ ID NO:9), primer B2: 5′-GATCTTTCTGCCCAGATACCATTCG-3′ (SEQ ID NO:10); Assay C, primer C1: 5′-CCTTGCCTTAGATGTGTCGGCA-3′ (SEQ ID NO:11), primer C2: 5′-CCCAAACCCAACCCATACACAC-3′ (SEQ ID NO:12)) and PCR grade water. PCR reactions were started with an initial enzyme activation step at 95° C. for 5 minutes followed by 35 cycles: 96° C. for 5 seconds, 60° C. for 5 seconds and 68° C. for 30 seconds/kb PCR product size. PCR products were analysed on a 1% TAE agarose gel. M: DNA size ladder (FIG. 3).

[3] = molecular target: T2, AmpliTaq Gold (Applied Biosystems) (Thermus aquaticus, UniProt P19821); test: SYBR Green I real-time PCR, Example 1, reactivation of chemically modified enzyme
T2 construct: purchased Applied Biosystems
T2 sequence (P19821 whole entry): as the sequence (P19821 whole entry) above
Excerpt: (§1) As model system to exemplify the invention, hot start PCR was chosen with two commercially available enzymes. […] AmpliTaq Gold (Applied Biosystems) is chemically inactivated using dicarboxylic acid anhydride whereas HotStarTaq (QIAGEN) is chemically inactivated using formaldehyde.
(§2) In real-time PCR, the enzymatic reaction is continuously monitored by measuring fluorescence signals throughout the reaction. Double-stranded DNA molecules are generated during the PCR reaction. These PCR products are detected by using SYBR Green I fluorescent dye that binds selectively to dsDNA only. Thus, an increase of fluorescence indicates an increase in PCR product amount and thus activity of the DNA polymerase contained in the reaction. […] Thus, the CT value is a measurement for the enzyme activity contained in the reaction: Low CT values indicate high enzyme activity and high CT values represent lower enzyme activity residing in the reaction.
(§3) A SYBR Green I based PCR reaction was conducted in the presence of unmodified Taq DNA Polymerase (QIAGEN) serving as a control reaction, using HotStarTaq DNA polymerase (QIAGEN) or AmpliTaq Gold (Applied Biosystems). Each reaction contained 0.625 units of the respective DNA polymerase, 1× PCR reaction buffer of the respective DNA polymerase, 200 μM of each dNTP, 0.5 μM primer A: 5′-[…]-3′ (SEQ ID NO:1), 0.5 μM primer B: 5′-[…]-3′ (SEQ ID NO:2), PCR grade water and in case of testing nitrogen-containing compounds as example 100 mM Triazole, final concentration. Each reaction contained 10 ng human genomic DNA as amplification substrate. PCR reactions were started with an initial enzyme activation step at 95° C. for 5 minutes followed by 50 cycles: 94° C. for 15 seconds and 60° C. for 60 seconds. Average CT values were determined from triplicate reactions comparing reactions without the addition of Triazole and with 100 mM Triazole.

[4] = molecular target: T3, HotStarTaq DNA polymerase (QIAGEN) (Thermus aquaticus, UniProt P19821); test: as above
T3 construct: purchased QIAGEN
T3 sequence (P19821 whole entry): as the sequence (P19821 whole entry) above
Excerpt: as §1, §2, §3

[5] = molecular target: T1, HotStarTaq DNA Polymerase; test: Fast PCR with shortened cycling times, agarose gel, Example 2; details: 100, 200, 300, 400 and 500 mM Triazole vs absence of Triazole; FIG. 1
Method: Each PCR reaction contained 1.5 units HotStarTaq DNA Polymerase, 10 ng template human genomic DNA, 200 μM of each dNTP, 0.5 μM primer A: 5′-CACACAGCGATGGCAGCTATGC-3′ (SEQ ID NO:3), 0.5 […] primer B: 5′-CCC AGT GAT GGG CCA GCT C-3′ (SEQ ID NO:4), PCR grade water and in case of testing nitrogen-containing compounds as example 100 mM, 200 mM, 300 mM, 400 mM and 500 mM Triazole, final concentration. PCR reactions were started with an initial enzyme activation step at 95° C. for 5 minutes followed by 35 cycles: 96° C. for 5 seconds, 60° C. for 5 seconds and 68° C. for 30 seconds. PCR products were analysed on a 1% TAE agarose gel (FIG. 1).

[6] = molecular target: T4, unmodified Taq DNA Polymerase (QIAGEN) (Thermus aquaticus, UniProt P19821); test: SYBR Green I real-time PCR, Example 1 (control enzyme)
T4 construct: purchased QIAGEN
T4 sequence (P19821 whole entry): as the sequence (P19821 whole entry) above
Excerpt: as §2
as §3, with “Each reaction contained 10 ng human genomic DNA as amplification substrate. PCR reactions were started with an initial enzyme activation step at 95° C. for 5 minutes followed by 50 cycles: 94° C. for 15 seconds and 60° C. for 60 seconds.” left out

[7] = molecular target: T1, HotStarTaq DNA Polymerase; test: Fast PCR with 20 mM ammonium chloride and Triazole, agarose gel, Example 5
Method: System C shown in Example 4 was chosen as model system. Each PCR reaction contained 1.5 units HotStarTaq DNA Polymerase, 10 ng template human genomic DNA, 200 μM of each dNTP, 0.5 μM of each primer A: 5′-CCTTGCCTTAGATGTGTCGGCA-3′ (SEQ ID NO:11), primer B: 5′-CCCAAACCCAACCCATACACAC -3′ (SEQ ID NO:12), and PCR grade water. PCR reactions were started with an initial enzyme activation step at 95° C. for 5 minutes followed by 35 cycles: 96° C. for 5 seconds, 60° C. for 5 seconds and 68° C. for 45 seconds. PCR products from duplicate reactions were analysed on a 1% TAE agarose gel. M: DNA size ladder.

chemically modified enzyme, sequence (P19821 whole entry): as the sequence (P19821 whole entry) above

N.O=C(O)c1ccccc1 [ammonium benzoate]
improvement of enzyme activity [1]: no improvement

N.N.O=C(O)O [ammonium carbonate]
improvement of enzyme activity [1]: no improvement

Cl.N [ammonium chloride]
overall enzyme activity of the chemically inactivated enzyme [2]: increase of overall enzyme activity

N.N.O=S(=O)(O)O [ammonium sulfate]
improvement of enzyme activity [1]: no improvement

N.N.O=P(O)(O)O [di-ammonium hydrogen phosphate]
improvement of enzyme activity [1]: no improvement

Triazole
effect on the enzyme activity ([3]; 100 mM Triazole): clearly higher enzyme activity | Average CT value with 100 mM Triazole ([3]; activation 95° C. for 5 minutes, triplicate reactions, low CT = high enzyme activity): 25.6 | effect on the enzyme activity ([4]; 100 mM Triazole, HotStarTaq DNA Polymerase): clearly higher enzyme activity | Average CT value with 100 mM Triazole ([4]; HotStarTaq, activation 95° C. for 5 minutes, triplicate reactions, low CT = high enzyme activity): 35.9 | enzyme activity / generation of the desired PCR product under fast cycling [5]: significantly improves enzyme activity | effect on the enzyme activity ([6]; 100 mM Triazole, unmodified Taq DNA polymerase): no effect | Average CT value with 100 mM Triazole ([6]; Taq (unmodified), activation 95° C. for 5 minutes, triplicate reactions, low CT = high enzyme activity): 21.3 | enzyme activity of the chemically modified enzyme ([7]; 500 mM Triazole in the presence of 20 mM ammonium chloride): still higher than in the reaction without Triazole | enzyme activity of the chemically modified enzyme ([7]; Triazole 100-500 mM in the presence of 20 mM ammonium chloride vs no Triazole, FIG. 4): clear benefit for the enzyme activity

ammonium citrate
improvement of enzyme activity [1]: no improvement
